TGI and GI50 data for twelve compounds are collected here from PubChem BioAssay (NCI).

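Values below derive from 48-hour exposures of cells grown in 96-well plates, with endpoints linearly interpolated between the two concentrations bracketing the appropriate inhibition level. GI50 = concentration required for 50% inhibition of growth. TGI denotes the concentration required for complete inhibition of growth.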 A value given as a limit tells only on which side of the number the result lay.

Among the test systems are SR leukemia; SN12C renal; CAKI-1 renal; MDA-MB-435; OVCAR-5 ovarian; NCI-H23 lung; NCI-H226 lung; COLO 205 colon; DU-145 prostate; HCC-2998 colon; OVCAR-4 ovarian.
Holding throughout (assay): inhibition of tumour cell growth, NCI panel, 48 h

As to `COc1c2ccsc2c(OC)c2ccsc12`, the TGI was over 100 µM in the test on SR leukemia; over 100 µM with SN12C renal; 40 µM in the test on CAKI-1 renal; over 100 µM in the test with MDA-MB-435; over 100 µM in the test on OVCAR-5 ovarian; over 100 µM with NCI-H23 lung. For the same compound, the TGI in the test on NCI-H226 lung, in the test with COLO 205 colon, in the test on DU-145 prostate, in the test on HCC-2998 colon and in the test with OVCAR-4 ovarian was over 100 µM throughout.
Consider `CC(=O)N(C(C)=O)n1c(Cc2ccc(C)cc2)nn(C(C)=O)c1=O`, for which the TGI in the test with SR leukemia, in the test on SN12C renal, with CAKI-1 renal, with MDA-MB-435, in the test on OVCAR-5 ovarian and in the test with NCI-H23 lung was over 100 µM throughout. Besides, the TGI in the test on NCI-H226 lung, in the test on COLO 205 colon, with DU-145 prostate, with HCC-2998 colon and in the test with OVCAR-4 ovarian was over 100 µM throughout.
In the case of `COc1ccc(N=C2C(=Nc3ccc(OC)cc3)N(c3ccc(N(C)C)cc3)C(=S)N2c2ccc(OC)cc2)cc1`, the TGI with SR leukemia, with SN12C renal, in the test with CAKI-1 renal, in the test on MDA-MB-435, in the test with OVCAR-5 ovarian and with NCI-H23 lung was over 100 µM throughout. Further, the TGI with NCI-H226 lung, with COLO 205 colon, with DU-145 prostate, with HCC-2998 colon and in the test with OVCAR-4 ovarian was over 100 µM throughout.
Turning to `CCCN(CCC)C1CCc2c(ccc3cc[nH]c23)C1` (centres undefined), the TGI with SR leukemia is 73.3 µM; with SN12C renal it was over 100 µM; in the test on CAKI-1 renal, over 100 µM; in the test with MDA-MB-435 it was over 100 µM; in the test on OVCAR-5 ovarian, over 100 µM; in the test with NCI-H23 lung, over 100 µM. In addition, the TGI with NCI-H226 lung was over 100 µM; in the test on COLO 205 colon it was over 100 µM; with DU-145 prostate, over 100 µM; in the test on HCC-2998 colon it was 59.9 µM; in the test with OVCAR-4 ovarian it was over 100 µM.
As to `COCC12CCC(OC)C34C5CC6(O)C(OC)CC(OC(C)=O)(C5C6OC(=O)c5ccccc5)C(C(OC)C13)C4N(C)C2` (centres undefined), the TGI with SR leukemia, in the test with SN12C renal, with CAKI-1 renal, in the test with MDA-MB-435, in the test with OVCAR-5 ovarian and in the test with NCI-H23 lung was over 100 µM throughout. In addition, the TGI with NCI-H226 lung, in the test with COLO 205 colon, in the test on DU-145 prostate, in the test on HCC-2998 colon and in the test on OVCAR-4 ovarian was over 100 µM throughout.
On to `Cc1cc(O)cc(O)c1C(=O)O[C@]1(C)C(=O)C=C2C=C(/C=C/C(=O)O)OC=C2C1=O`, for which the TGI in the test with SR leukemia was 99 µM; in the test on SN12C renal, over 100 µM; with CAKI-1 renal it was over 100 µM; with MDA-MB-435, over 100 µM; in the test on OVCAR-5 ovarian, over 100 µM; in the test on NCI-H23 lung it was over 100 µM. Besides, the TGI in the test on NCI-H226 lung, in the test with COLO 205 colon, in the test on DU-145 prostate, in the test with HCC-2998 colon and in the test on OVCAR-4 ovarian was over 100 µM each time.
Consider `CCCc1nnc2sc(COc3cc(Cl)c(OCc4nn5c(CCC)nnc5s4)cc3Cl)nn12`, for which the TGI is 1.77 µM in the test with SR leukemia; over 100 µM in the test with SN12C renal; over 100 µM in the test on CAKI-1 renal; over 100 µM with MDA-MB-435; over 100 µM in the test with OVCAR-5 ovarian; over 100 µM in the test with NCI-H23 lung. Besides, the TGI with NCI-H226 lung was over 100 µM; in the test with COLO 205 colon, over 100 µM; in the test on DU-145 prostate, over 100 µM; in the test on HCC-2998 colon it was over 100 µM; in the test on OVCAR-4 ovarian it was 80.5 µM.
On to `Cc1cc2oc(C)c(S(=O)(=O)NC(=O)Nc3ccc(Cl)cc3)c(=O)c2c(=O)o1`, for which the TGI with SR leukemia, in the test on SN12C renal, in the test with CAKI-1 renal, in the test with MDA-MB-435, in the test with OVCAR-5 ovarian and in the test on NCI-H23 lung was over 100 µM each time. Also, the TGI with NCI-H226 lung, in the test on COLO 205 colon, with DU-145 prostate, in the test with HCC-2998 colon and in the test with OVCAR-4 ovarian was over 100 µM in each case.
Take `CC1=CCC[C@H]2[C@](C)(CC3=CC(=O)C(Sc4ccccc4)=CC3=O)[C@@H](C)CC[C@]12C`: the TGI in the test on SR leukemia came to 48.3 µM; with SN12C renal, 31.6 µM; in the test on CAKI-1 renal it was 36.7 µM; with MDA-MB-435, 43.5 µM; in the test with OVCAR-5 ovarian it was 32.1 µM; in the test on NCI-H23 lung, 28.2 µM. The TGI was 27.8 µM with NCI-H226 lung; 29.5 µM in the test on COLO 205 colon; 47.4 µM in the test on DU-145 prostate; 41 µM in the test with HCC-2998 colon; 43.7 µM with OVCAR-4 ovarian. Also, the values for the GI50 in the test with MDA-MB-435 and in the test on NCI-H23 lung were 17.1 µM and 14.7 µM, respectively.
In the case of `COc1ccc2c(c1)CCN1CCCc3ccccc3C21` (centres undefined), the TGI is over 100 µM in the test on SR leukemia; over 100 µM in the test with SN12C renal; over 100 µM with CAKI-1 renal; 52.5 µM with MDA-MB-435; over 100 µM in the test on OVCAR-5 ovarian; over 100 µM in the test on NCI-H23 lung. Also, the TGI is over 100 µM in the test on NCI-H226 lung; over 100 µM in the test on COLO 205 colon; over 100 µM with DU-145 prostate; 80.8 µM in the test on HCC-2998 colon; over 100 µM in the test with OVCAR-4 ovarian.
With `CCOC(=O)CCC(NC(=O)Cc1ccc(Oc2nc3ccccc3nc2-c2ccccc2)cc1)C(=O)OCC` (centres undefined), the TGI with SR leukemia, with SN12C renal, in the test on CAKI-1 renal, in the test with MDA-MB-435, in the test with OVCAR-5 ovarian and in the test with NCI-H23 lung was over 100 µM in each case. Besides, the TGI in the test on NCI-H226 lung was 78.9 µM; in the test with COLO 205 colon, over 100 µM; in the test with DU-145 prostate it was over 100 µM; with HCC-2998 colon it was over 100 µM; with OVCAR-4 ovarian, over 100 µM.
Regarding `Cc1c(O)c(OC2OC(CO)C(O)C(O)C2O)cc2c1C=C[C@@H]1[C@@]2(C)C(=O)C[C@]2(C)[C@@H]([C@@](C)(O)C(=O)CCC(C)(C)O)[C@H](O)C[C@@]12C` (some centres undefined), the TGI was over 100 µM in the test on SR leukemia; 44.1 µM with SN12C renal; 36.5 µM with CAKI-1 renal; 66.5 µM with MDA-MB-435; 61.2 µM with OVCAR-5 ovarian; 37.9 µM in the test with NCI-H23 lung. The TGI in the test on NCI-H226 lung was 62.7 µM; in the test with COLO 205 colon, over 100 µM; with DU-145 prostate, 56.6 µM; in the test with HCC-2998 colon, 41 µM; in the test on OVCAR-4 ovarian, over 100 µM.
